Experimental findings from EP3915971A1, “PHENYL-S(O)N-PHENYLAMIDINES AND THE USE THEREOF AS FUNGICIDES” (Bayer Aktiengesellschaft, priority 2020, dated 2021) are described below.

As usually defined, the chromatographic logP is lipophilicity estimated from chromatographic retention. Lower therefore signals a more hydrophilic compound.

Molecules are shown by their SMILES.

A short description of the first series: LogP measurement by HPLC on reversed phase columns (EEC directive 79/831 Annex V.A8). It counts as physicochemical. As to conditions: method [a]: LC-UV, acidic range, 0.1% formic acid in water and acetonitrile as eluent (linear gradient 10% to 95% acetonitrile). As for the experimental part: Measurement of LogP values was performed according to EEC directive 79/831 Annex V.A8 by HPLC (High Performance Liquid Chromatography) on reversed phase columns with the following methods: • ^[a] LogP value is determined by measurement of LC-UV, in an acidic range, with 0.1% formic acid in water and acetonitrile as eluent (linear gradient from 10% acetonitrile to 95% acetonitrile). • ^[b] LogP value is determined by measurement of LC-UV, in a neutral range, with 0.001 molar ammonium acetate solution in water and acetonitrile as eluent (linear gradient from 10% acetonitrile to 95% acetonitrile). • ^[c] LogP value is determined by measurement of LC-UV, in an acidic range, with 0.1% phosphoric acid and acetonitrile as eluent (linear gradient from 10% acetonitrile to 95% acetonitrile).
If more than one LogP value is available within the same method, all the values are given and separated by "+". […]
In turn, `CCN(C)C=Nc1cc(C)c([S+]([O-])c2ccccc2F)cc1C` (stereo not drawn) [Example I-011, N-ethyl-N'-[4-(2-fluorophenyl)sul6nyl-2,5-dimethylphenyl]-N-methylmethanimidamide] displayed a chromatographic logP of 0.78.

Staying with this series, now noted: reversed phase HPLC columns, method [a]: LC-UV, acidic range, 0.1% formic acid in water and acetonitrile as eluent (linear gradient 10% to 95% acetonitrile).
The compound `CCN(C)C=Nc1cc(C)c(S(=O)(=O)c2ccccc2)cc1C` [Example I-004, N'-[4-(benzenesulfonyl)-2,5-dimethylphenyl]-N-ethyl-N-methylmethanimidamide] yielded a chromatographic logP of 1.

Turning to `CCN(C)C=Nc1cc(C)c([S+]([O-])c2ccccc2Cl)cc1C` (stereo not drawn) [Example I-010, N'-[4-(2-chlorophenyl)sulfinyl-2,5-dimethylphenyl]-N-ethyl-N-methylmethanimidamide], the chromatographic logP came out at 0.97.

On to `CCN(C)C=Nc1cc(C)c([S+]([O-])c2ccccc2C)cc1Cl` (stereo not drawn) [Example I-012, N'-[2-chloro-5-methyl-4-(2-methylphenyl)sulfinylphenyl]-N-ethyl-N-methylmethanimidamide], for which the chromatographic logP was found to be 0.97.

For `CCN(C)C=Nc1cc(C)c([S+]([O-])c2ccccc2Cl)cc1Cl` (stereo not drawn) [Example I-013, N'-[2-chloro-4-(2-chlorophenyl)sulfinyl-5-methylphenyl]-N-ethyl-N-methylmethanimidamide], the chromatographic logP was found to be 1.15. The chromatographic logP values of the last two compounds are within 0.2 log units of each other.

In turn, `CCN(C)C=Nc1cc(C)c([S+]([O-])c2ccccc2F)cc1Cl` (stereo not drawn) [Example I-014, N'-[2-chloro-4-(2-fluorophenyl)sulfinyl-5-methylphenyl]-N-ethyl-N-methylmethanimidamide] had a chromatographic logP of 0.94.

In the case of `CCN(C)C=Nc1cc(C)c(S(=O)(=O)c2ccccc2C)cc1Cl` [Example I-015, N'-[2-chloro-5-methyl-4-(2-methylphenyl)sulfonylphenyl]-N-ethyl-N-methylmethanimidamide], the chromatographic logP came out at 1.69.

For the compound `CCN(C)C=Nc1cc(C)c(S(=O)(=O)c2ccccc2C)cc1C` [Example I-016, N'-[2,5-dimethyl-4-(2-methylphenyl)sulfonylphenyl]-N-ethyl-N-methylmethanimidamide], the chromatographic logP was 1.18.

In turn, `CCN(C)C=Nc1cc(C)c(S(=O)(=O)c2ccccc2F)cc1C` [Example I-017, N-ethyl-N'-[4-(2-fluorophenyl)sulfonyl-2,5-dimethylphenyl]-N-methylmethanimidamide] yielded a chromatographic logP of 1.07. The chromatographic logP values of the last two compounds are within 0.2 log units of each other.

With `CCN(C)C=Nc1cc(C)c(S(=O)(=O)c2ccccc2Cl)cc1Cl` [Example I-018, N'-[2-chloro-4-(2-chlorophenyl)sulfonyl-5-methylphenyl]-N-ethyl-N-methylmethanimidamide], the chromatographic logP was found to be 2.02.

On to `CCN(C)C=Nc1cc(C)c(S(=O)(=O)c2ccccc2F)cc1Cl` [Example I-019, N'-[2-chloro-4-(2-fluorophenyl)sulfonyl-5-methylphenyl]-N-ethyl-N-methylmethanimidamide], for which the chromatographic logP stood at 1.84.

For `CCN(C)C=Nc1cc(F)c(S(=O)(=O)c2ccccc2)cc1C` [Example I-027, N'-[4-(benzenesulfonyl)-5-fluoro-2-methylphenyl]-N-ethyl-N-methylmethanimidamide], the chromatographic logP was 1.18.

The compound `CCN(C)C=Nc1cc(F)c(S(=O)(=O)c2ccccc2C)cc1C` [Example I-028, N-ethyl-N'-[5-fluoro-2-methyl-4-(2-methylphenyl)sulfonylphenyl]-N-methylmethanimidamide] returned a chromatographic logP of 1.42.

Take `CCN(C)C=Nc1cc(F)c(S(=O)(=O)c2ccccc2Cl)cc1C` [Example I-029, N'-[4-(2-chlorophenyl)sulfonyl-5-fluoro-2-methylphenyl]-N-ethyl-N-methylmethanimidamide]: the chromatographic logP was 1.45.

Compound `CCN(C)C=Nc1cc(Cl)c([S+]([O-])c2ccccc2F)cc1C` (stereo not drawn) [Example I-030, N'-[5-chloro-4-(2-fluorophenyl)sulfinyl-2-methylphenyl]-N-ethyl-N-methylmethanimidamide] came in with a chromatographic logP of 1.03.

In turn, `CCN(C)C=Nc1cc(F)c([S+]([O-])c2ccccc2)cc1C` (stereo not drawn) [Example I-031, N'-[4-(benzenesulfinyl)-5-fluoro-2-methylphenyl]-N-ethyl-N-methylmethanimidamide] showed a chromatographic logP of 0.78.

In turn, `CCN(C)C=Nc1cc(F)c([S+]([O-])c2ccccc2C)cc1C` (stereo not drawn) [Example I-032, N-ethyl-N'-[5-fluoro-2-methyl-4-(2-methylphenyl)sulfinylphenyl]-N-methylmethanimidamide] came in with a chromatographic logP of 1.

On to `CCN(C)C=Nc1cc(F)c([S+]([O-])c2ccccc2Cl)cc1C` (stereo not drawn) [Example I-033, N'-[4-(2-chlorophenyl)sulfinyl-5-fluoro-2-methylphenyl]-N-ethyl-N-methylmethanimidamide], for which the chromatographic logP was found to be 1.12.

For `CCN(C)C=Nc1cc(Cl)c(S(=O)(=O)c2ccccc2C)cc1C` [Example I-034, N'-[5-chloro-2-methyl-4-(2-methylphenyl)sulfonylphenyl]-N-ethyl-N-methylmethanimidamide], the chromatographic logP came to 1.5.

Consider `CCN(C)C=Nc1cc(Br)c([S+]([O-])c2ccccc2C)cc1C` (stereo not drawn) [Example I-035, N'-[5-bromo-2-methyl-4-(2-methylphenyl)sulfinylphenyl]-N-ethyl-N-methylmethanimidamide], for which the chromatographic logP amounted to 1.12.

The compound `CCN(C)C=Nc1cc(Br)c([S+]([O-])c2ccccc2Cl)cc1C` (stereo not drawn) [Example I-036, N'-[5-bromo-4-(2-chlorophenyl)sulfinyl-2-methylphenyl]-N-ethyl-N-methylmethanimidamide] showed a chromatographic logP of 1.26.

For the compound `CCN(C)C=Nc1cc(Cl)c([S+]([O-])c2ccccc2C)cc1C` (stereo not drawn) [Example I-037, N'-[5-chloro-2-methyl-4-(2-methylphenyl)sulfinylphenyl]-N-ethyl-N-methylmethanimidamide], the chromatographic logP stood at 1.1.

In turn, `CCN(C)C=Nc1cc(Br)c([S+]([O-])c2ccccc2)cc1C` (stereo not drawn) [Example I-038, N'-[4-(benzenesulfinyl)-5-bromo-2-methylphenyl]-N-ethyl-N-methylmethanimidamide] had a chromatographic logP of 1.

In turn, `CCN(C)C=Nc1cc(Cl)c([S+]([O-])c2ccccc2Cl)cc1C` (stereo not drawn) [Example I-040, N'-[5-chloro-4-(2-chlorophenyl)sulfinyl-2-methylphenyl]-N-ethyl-N-methylmethanimidamide] came in with a chromatographic logP of 1.23.

In turn, `CCN(C)C=Nc1cc(Br)c([S+]([O-])c2ccccc2F)cc1C` (stereo not drawn) [Example I-043, N'-[5-bromo-4-(2-fluorophenyl)sulfinyl-2-methylphenyl]-N-ethyl-N-methylmethanimidamide] registered a chromatographic logP of 1.1.

With `CCN(C)C=Nc1cc(Cl)c(S(=O)(=O)c2ccccc2)cc1C` [Example I-048, N'-[4-(benzenesulfonyl)-5-chloro-2-methylphenyl]-N-ethyl-N-methylmethanimidamide], the chromatographic logP stood at 1.31.

As for `CCN(C)C=Nc1cc(C)c(S(=O)(=O)c2ccccc2C#N)cc1C` [Example I-049, N'-[4-(2-cyanophenyl)sulfonyl-2,5-dimethylphenyl]-N-ethyl-N-methylmethanimidamide], the chromatographic logP came to 1.

Take `CCN(C)C=Nc1cc(Cl)c([S+]([O-])c2ccccc2)cc1C` (stereo not drawn) [Example I-050, N'-[4-(benzenesulfinyl)-5-chloro-2-methylphenyl]-N-ethyl-N-methylmethanimidamide]: the chromatographic logP was 0.97.

The compound `CCN(C)C=Nc1cc(Cl)c([S+]([O-])c2ccccc2C#N)cc1C` (stereo not drawn) [Example I-051, N'-[5-chloro-4-(2-cyanophenyl)sulfinyl-2-methylphenyl]-N-ethyl-N-methylmethanimidamide] came in with a chromatographic logP of 0.87.

For `CCN(C)C=Nc1cc(Cl)c(S(=O)(=O)c2ccccc2C#N)cc1C` [Example I-053, N'-[5-chloro-4-(2-cyanophenyl)sulfonyl-2-methylphenyl]-N-ethyl-N-methylmethanimidamide], the chromatographic logP came out at 1.31.

The compound `CCN(C)C=Nc1cc(C#N)c(S(=O)(=O)c2ccccc2)cc1C` [Example I-055, N'-[4-(benzenesulfonyl)-5-cyano-2-methylphenyl]-N-ethyl-N-methylmethanimidamide] displayed a chromatographic logP of 1.53.

Compound `CCN(C)C=Nc1cc(C#N)c([S+]([O-])c2ccccc2)cc1C` (stereo not drawn) [Example I-056, N'-[4-(benzenesulfinyl)-5-cyano-2-methylphenyl]-N-ethyl-N-methylmethanimidamide] had a chromatographic logP of 0.87.

As to `CCN(C)C=Nc1cc(C#N)c([S+]([O-])c2ccccc2C)cc1C` (stereo not drawn) [Example I-057, N'-[5-cyano-2-methyl-4-(2-methylphenyl)sulfinylphenyl]-N-ethyl-N-methylmethanimidamide], the chromatographic logP came to 1.28.

As to `CCN(C)C=Nc1cc(C#N)c(S(=O)(=O)c2ccccc2C)cc1C` [Example I-059, N'-[5-cyano-2-methyl-4-(2-methylphenyl)sulfonylphenyl]-N-ethyl-N-methylmethanimidamide], the chromatographic logP amounted to 1.8.

Take `CCN(C)C=Nc1cc(C#N)c([S+]([O-])c2ccccc2Cl)cc1C` (stereo not drawn) [Example I-061, N'-[4-(2-chlorophenyl)sulfinyl-5-cyano-2-methylphenyl]-N-ethyl-N-methylmethanimidamide]: the chromatographic logP is 1.27.

The compound `CCN(C)C=Nc1cc(C#N)c(S(=O)(=O)c2ccccc2Cl)cc1C` [Example I-062, N'-[4-(2-chlorophenyl)sulfonyl-5-cyano-2-methylphenyl]-N-ethyl-N-methylmethanimidamide] had a chromatographic logP of 1.84.
